Reference: article PMC6826616, “Topical 2′-Hydroxyflavanone for Cutaneous Melanoma” (Cancers, 2019)

Assays:
Format in all cases: cell-based
[1] = system: B16-F10 cells; assay: MTT cytotoxicity assay, B16-F10; settings: Mus musculus, Table 1, agent alone, read-out: IC50
Description: (§1) We studied the growth-inhibitory effects of 2HF on the B16-F0 and B16-F10 murine melanoma cell lines as well as on the SK-MEL-24 human melanoma cell line. B16-F10 and SK-MEL-24 have been shown in previous studies to be highly resistant to treatment and much more invasive than B16-F0 [32]. […] The absorption value measured upon reduction of the MTT dye by functional mitochondria is an indirect measure of cell number that cannot distinguish inhibited cell proliferation from apoptotic or necrotic cell death. By counting viable (trypan-blue dye-excluding) cells using a hemacytometer, we verified that 2HF did indeed cause cell death.
(§2) Figure 1 Mouse and human melanoma cell survival following 2′-hydroxyflavanone (2HF) treatment.
(§3) The IC50 of 2HF on B16-F0, B16-F10, and SK-MEL-24 cells was determined by MTT cytotoxicity assay. Cells were harvested and Trypan Blue dye exclusion test was used to determine the number of viable cells present in a cell suspension using a hemocytometer. The cell suspension was diluted to 5 × 10^4 cells/mL with Dulbecco’s Modified Eagle’s Medium (DMEM) complete medium and 5000 cells/well were plated in 96-well plates. After 24 h incubation at 37 °C, cells were treated with 2HF concentrations ranging from 0–200 µM (8 replicates per plate). After 48 or 72 h incubation, 40 µL of MTT (5 mg/mL) solution was added. After 4 h incubation, the plate was centrifuged at 700× g for 5 min and medium was aspirated completely. Then, 50 µL DMSO was added to each well to dissolve the purple precipitate on the rocking platform for about 15 min. The absorbance was then measured at 490 nm using a 96-well microplate reader (Spectramax Plus, Molecular Devices, Inc, San Jose, CA, USA).

[2] = system: SK-MEL-24 cells; assay: MTT cytotoxicity assay, SK-MEL-24; settings: Homo sapiens, Table 1, agent alone, read-out: IC50
Description: as §1, §2, §3

[3] = system: B16-F0 cells; assay: MTT cytotoxicity assay, B16-F0; settings: Mus musculus, B16F0; Table 1, agent alone; read-out: IC50
Description: as §1, §2, §3

`COC1CCN(C(=O)c2cc(Cc3n[nH]c(=O)c4ccccc34)ccc2F)CC1` [PARP1i, AZD 2461, reference compound] was tested, and the IC50 [1] was 29.9 ± 28.5 µM, the IC50 [2] was 55 ± 23.9 µM and the IC50 [3] was 16.5 ± 4.86 µM.
